This note sets out measurements from PubChem BioAssay (NCI).

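Step 1: Grow cells in 96-well plates. Step 2: Expose to compound for 48 hours at 5 concentrations. Step 3: Interpolate endpoints linearly; if unreached, use highest concentration. GI50 = concentration required for 50% inhibition of growth. TGI denotes the concentration required for complete inhibition of growth.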

Test systems include NCI-H23 lung; DU-145 prostate; SK-MEL-28 melanoma; HCT-116 colon; CAKI-1 renal; A549 NSCLC; T-47D breast; SNB-19 CNS; MDA-MB-435; SN12C renal.
Experiment in all cases: NCI tumour cell line growth inhibition, 48 h

Regarding `Cc1ccc(C2=C(c3ccc(C)cc3)C3(c4ccc(C)cc4)C4C(=O)OC(=O)C4C2(c2ccc(C)cc2)S3=O)cc1` (stereo not given), the GI50 with NCI-H23 lung was 18.2 µM; in the assay with DU-145 prostate, 47.6 µM; in the assay with SK-MEL-28 melanoma, 28.8 µM; with HCT-116 colon, 23.7 µM; with CAKI-1 renal it was 26.3 µM; in the assay on A549 NSCLC, 32 µM. Further, the GI50 is above 100 µM in the assay with T-47D breast, 20.9 µM in the assay with SNB-19 CNS, 17.5 µM in the assay on MDA-MB-435 and 25.1 µM in the assay with SN12C renal. The TGI in the assay on NCI-H23 lung is 41.8 µM; in the assay with DU-145 prostate it was above 100 µM; with SK-MEL-28 melanoma it was 96.1 µM; in the assay on HCT-116 colon, 92.5 µM; in the assay on CAKI-1 renal, above 100 µM; in the assay on A549 NSCLC, above 100 µM. Also, the TGI was above 100 µM with T-47D breast, above 100 µM with SNB-19 CNS, 63.7 µM with MDA-MB-435 and 87.9 µM in the assay with SN12C renal.
With `COc1cccc2c1C(=N)c1c(O)c3c(c(O)c1C2=O)C[C@@](O)(C(C)=O)C[C@@H]3O[C@H]1C[C@H](N)[C@H](O)[C@H](C)O1`, the GI50 with NCI-H23 lung is 0.233 µM; in the assay on DU-145 prostate it was 0.292 µM; in the assay with SK-MEL-28 melanoma, 2.58 µM; with HCT-116 colon, 0.277 µM; with CAKI-1 renal, 0.445 µM; in the assay with A549 NSCLC, 0.155 µM. In addition, the GI50 with T-47D breast is 0.24 µM; with SNB-19 CNS, 0.232 µM; in the assay with MDA-MB-435, 1.66 µM; in the assay with SN12C renal it was 0.224 µM. The TGI was found to be 1.16 µM with NCI-H23 lung; 1.72 µM in the assay with DU-145 prostate; 13.9 µM in the assay with SK-MEL-28 melanoma; 6.6 µM in the assay with HCT-116 colon; 4.07 µM in the assay on CAKI-1 renal; 1.58 µM in the assay with A549 NSCLC. The TGI in the assay with T-47D breast stood at 4.17 µM; in the assay with SNB-19 CNS it was 2.92 µM; with MDA-MB-435, 8.91 µM; with SN12C renal, 1.21 µM.
On to `COc1ccc(C(C#N)NC23CC4CC(CC(C4)C2)C3)cc1` (stereo not given), for which the TGI in the assay on NCI-H23 lung, in the assay on DU-145 prostate, with SK-MEL-28 melanoma, in the assay on HCT-116 colon, in the assay with CAKI-1 renal and with A549 NSCLC was above 100 µM each time. Moreover, the TGI in the assay on T-47D breast, in the assay on SNB-19 CNS, in the assay on MDA-MB-435 and in the assay on SN12C renal was above 100 µM in each case.
Consider `COC(=O)c1ccc2[nH]c(O)c(C(=Nc3ccc(N(C)C(=O)CN4CCN(C)CC4)cc3)c3ccc4c(c3)OCO4)c2c1`, for which the GI50 is 0.612 µM in the assay with NCI-H23 lung; 1.03 µM with DU-145 prostate; 1.21 µM in the assay on SK-MEL-28 melanoma; 0.197 µM in the assay on HCT-116 colon; 0.26 µM with CAKI-1 renal; 1.09 µM with A549 NSCLC. Besides, the GI50 was 0.739 µM in the assay on T-47D breast, 1.06 µM in the assay on SNB-19 CNS, 0.724 µM with MDA-MB-435 and 0.321 µM in the assay on SN12C renal. Also, the TGI with NCI-H23 lung was determined as 2.85 µM; with DU-145 prostate, 6.06 µM; in the assay on SK-MEL-28 melanoma, 2.92 µM; in the assay with HCT-116 colon, 1.52 µM; with CAKI-1 renal, 4.07 µM; in the assay on A549 NSCLC it was 4.12 µM. The TGI in the assay on T-47D breast is 8 µM; in the assay with SNB-19 CNS, 6.05 µM; with MDA-MB-435 it was 2.19 µM; in the assay with SN12C renal it was 9.61 µM.
On to `Nc1ncnc2c1ncn2C1C=C(CO)C(O)C1O` (stereo not given), for which the TGI with NCI-H23 lung is 35.4 µM; with DU-145 prostate, 35.8 µM; in the assay with SK-MEL-28 melanoma, above 100 µM; with HCT-116 colon, 12.6 µM; in the assay with CAKI-1 renal, above 93.6 µM; in the assay with A549 NSCLC it was above 100 µM. Moreover, the TGI was 10.2 µM in the assay on T-47D breast, above 100 µM with SNB-19 CNS, above 100 µM in the assay on MDA-MB-435 and above 100 µM in the assay with SN12C renal.
As to `CCN1CCCc2cc3c(C(F)(F)F)cc(=O)oc3cc21`, the TGI with NCI-H23 lung, in the assay with DU-145 prostate, with SK-MEL-28 melanoma, with HCT-116 colon, in the assay with CAKI-1 renal and in the assay with A549 NSCLC was above 100 µM each time. The TGI in the assay on T-47D breast, in the assay with SNB-19 CNS, in the assay on MDA-MB-435 and with SN12C renal was above 100 µM in each case.
Consider `CCCCCCCCn1ccc2cc(NC(=O)Cn3cc(CN4CCCCCC4)nn3)ccc21`, for which the GI50 in the assay with NCI-H23 lung was 1.76 µM; in the assay on DU-145 prostate it was 1.97 µM; with SK-MEL-28 melanoma it was 1.82 µM; in the assay with HCT-116 colon, 1.66 µM; with CAKI-1 renal, 1.49 µM; in the assay on A549 NSCLC it was 1.77 µM. Also, the GI50 is 1.66 µM with T-47D breast, 1.8 µM with SNB-19 CNS, 1.69 µM in the assay on MDA-MB-435 and 1.67 µM in the assay with SN12C renal. Moreover, the TGI with NCI-H23 lung was 3.77 µM; in the assay with DU-145 prostate it was 3.81 µM; in the assay on SK-MEL-28 melanoma it was 3.3 µM; in the assay with HCT-116 colon, 3.1 µM; in the assay with CAKI-1 renal, 2.89 µM; in the assay on A549 NSCLC it was 3.36 µM. The TGI with T-47D breast came out at 3.78 µM; in the assay with SNB-19 CNS, 3.46 µM; in the assay on MDA-MB-435, 3.18 µM; in the assay with SN12C renal, 3.26 µM.
Consider `Nc1ncc(-c2cnn(C3CCNCC3)c2)cc1-c1nc2cc(Cl)ccc2o1`, for which the GI50 was 1.62 µM in the assay with NCI-H23 lung; 1.63 µM with DU-145 prostate; 1.3 µM with SK-MEL-28 melanoma; 0.851 µM in the assay on HCT-116 colon; 1.58 µM in the assay with CAKI-1 renal; 1.53 µM in the assay with A549 NSCLC. Also, the GI50 was 1.62 µM in the assay with T-47D breast, 1.56 µM in the assay on SNB-19 CNS, 1.77 µM in the assay with MDA-MB-435 and 1.24 µM with SN12C renal. In addition, the TGI with NCI-H23 lung came out at 3.14 µM; with DU-145 prostate, 3.08 µM; in the assay on SK-MEL-28 melanoma, 2.68 µM; in the assay on HCT-116 colon, 2.13 µM; in the assay with CAKI-1 renal, 3.09 µM; with A549 NSCLC it was 3.11 µM. Further, the TGI came out at 3.34 µM in the assay on T-47D breast, 2.97 µM with SNB-19 CNS, 3.36 µM in the assay with MDA-MB-435 and 2.71 µM in the assay with SN12C renal.
